B1: PnFX: fructosyl peptide oxidase derived from Phaeosphaeria nodorum, SEQ ID NO: 40 (protein, listed as Phaeosphaeria nodorum)
chain: MAPSRANTSVIVVGGGGTIGSSTALHLVRSGYTPSNVTVLDAYPIPSSQSAGNDLNKIMGVSLRNPVDLQLALEARQMWNEDELFKKFFHNTGRLDCAHGEKDIADLKSGYQALVDAGLDATNEWLDSEDEILKRMPLLSRDQIKGWKAIFSKDGGWLAAAKAINAVGEYLRDQGVRFGFYGAGSFKAPLLAEGVCIGVETVDGTRYYADKVVLAAGAWSPTLVELHEQCVSKAWVYGHIQLTPEEAARYKNSPVVYNGDVGFFFEPNEHGVIKVCDEFPGFTRFKMHQPFGAKAPKRISVPRSHAKHPTDTIPDASDVSIRRAIATFMPQFKNKKMFNQAMCWCTDTADAALLICEHPEWKNFVLATGDSGHSFKLLPNIGKHVVELLEGTLADDLAHAWRWRPGSGDALKSRRSAPAKDLADMPGWNHDKPRANL
B2: NvFX: ketoamine oxidase derived from Neocosmospora vasinfecta, SEQ ID NO: 38 (protein, listed as Neocosmospora vasinfecta)
chain: MTTPRKETTVLIIGGGGTIGSSTALHLLRAGYTPSNITVLDTYPIPSAQSAGNDLNKIMGIRLRNKVDLQLSLEARDMWRNDALFRPFFHNTGRLDCESSAEGVEGLRREYQKLVEAGVGLEETHEWLDSEEAILEKAPLLQREEIEGWKAIWSEEGGWLAAAKAINAIGEELQRQGVRFGFGGAGSFKRPLFADDGTTCIGVETVDGTQYHADKVVLAAGAWSPALVDLEEQCCSKAWVYAHMQLTPEEAAVYKGCPVVYHGDVGFFFEPNENGVIKVCDEFPGFTRFKQHQPYGAPAPKPVSVPRSHAKHPTDTYPDASEESIKRAVSTFLPRFKDKPLFNRALCWCTDTADSALLICEHPRWKNFILATGDSGHSFKLLPIIGKHVVELVEGRLADDLAEAWRWRPGQGDARKSIRAAPAKDLADMPGWKHDQDSESR

Experiments:
CFP-T7 [1] = assay: Surfactant resistance of amadoriase in presence of buffering agents; assay type: biochemical, genus Coniochaeta; conditions: for CFP-T7 Residual Activity (%): 0.01% CTAC, purified CFP-T7; for amadoriase stabilizing effect of the buffer (in words): CFP-T7 in the presence of surfactant
Method: In the above surfactant resistance measuring method, the residual activity of an amadoriase is measured by using various buffers in place of a 30 mM MES/21 mM Tris buffer solution. In this manner, the contribution of the buffer to the amadoriase residual activity can be evaluated. For example, in place of the 30 mM MES/21 mM Tris buffer solution (pH 6.5), e.g., a phosphate buffer solution (pH 7.0), a citrate buffer solution (pH 6.0), a HEPES buffer solution (pH 7.0) or an ACES buffer solution (pH 7.0) can be used. Other conditions and procedure can be the same as in the above surfactant resistance measuring method.
It was studied whether the surfactant resistance of an amadoriase is enhanced or not when a buffering agent other than a 30 mM MES/21 mM Tris buffering agent (pH 6.5) was used. Using CFP-T7 purified as described above as a sample, the final concentration of CTAC was set at 0.01% to evaluate the surfactant resistance of CFP-T7 according to the measurement method for surfactant resistance in Example 1 in the presence of any of various buffering agents, specifically a phosphate buffering agent containing phosphoric acid and potassium phosphate (pH 7.0), a citrate buffering agent containing citric acid and sodium citrate (pH 6.0), an MES buffering agent containing MES and it sodium salt (pH 7.0), an HEPES buffering agent containing HEPES and its sodium salt (pH 7.0), and an ACES buffering agent containing ACES and its sodium salt (pH 7.0), in place of the 30 mM MES/21 mM Tris buffering agent (pH 6.5).

CFP-T7 [2] = assay: Surfactant resistance of amadoriase during addition of each stabilizer (CFP-T7); assay type: biochemical, genus Coniochaeta; conditions: 500 mM HEPES (pH 7.0), 0.01% CTAC, Table 9-1
Method: In the above surfactant resistance measuring method, various stabilizers are added and the residual activity of an amadoriase is measured in order to evaluate the effect of the stabilizers. […] The concentration sufficient to provide a buffer capacity to a solution refers to the concentration at which pH is maintained within a predetermined range (for example pH5 to 10, pH6 to 8) without having pH change due to other reagents added to the solution. A concentration insufficient to provide a buffer capacity to a solution refers to the concentration at which pH changes by addition of other reagents to the solution and pH falls outside a particular range. These concentrations vary depending upon the type and amount of other reagents to be added to a solution; however, a person skilled in the art can appropriately determine the concentration by conventional methods. Other conditions and procedure can be the same as in the above surfactant resistance measuring method.
It was studied whether or not the addition of any of various stabilizers enhanced the surfactant resistance of an amadoriase. Phosphoric acid, a tricarboxylic acid (e.g., citric acid), a dicarboxylic acid (e.g., malic acid, maleic acid, citraconic acid, malonic acid, glutaric acid, or tartaric acid), a monpcarboxylic acid (e.g., acetic acid), MES, MOPS, MOPSO, or ammonium sulfate was used as a stabilizer. As a Comparative Example, CHES was used. To prevent change in pH when adding the stabilizer, 500 mM HEPES (pH 7.0) was used as a buffer solution; CFP-T7 purified as described above was used as a sample; the final concentration of CTAC was set at 0.01%; and any of the stabilizers was further added to evaluate the surfactant resistance of CFP-T7 according to the measurement method for surfactant resistance in Example 1. Using a 500 mM HEPES (pH 7.0) buffering agent and CFP-D2 purified as described above as a sample, any of the stabilizers was further added, and the surfactant resistance of CFP-D2 was evaluated according to the measurement method for surfactant resistance in Example 1 although under more harsh surfactant treatment conditions in which the final concentration of CTAC was set at 0.08% and the treatment temperature at 37° C.

PnFX = assay: Surfactant resistance of PnFX during addition of each stabilizer; assay type: biochemical, Phaeosphaeria nodorum; conditions: 300 mM HEPES (pH 7.0), 0.04% CTAC
Method: The same stabilizers as those described above were used as stabilizers; 300 mM HEPES (pH 7.0) was used as a buffering agent to prevent a change in pH when the stabilizers was each added; PnFX purified as described above was used as a sample; the final concentration of CTAC was set at 0.04%; and the surfactant resistance of PnFX was evaluated as described above.

[3] = Measurement of fructosyl peptide sample (αFVH) under mixing of CTAC, change in absorbance at 751 nm; assay type: biochemical; conditions: for Amount of Change in Absorbance at Wavelength of 751 nm under Mixing of Each Concentration of CTAC: as in Example 5, Table 7
Method: The purified enzyme of CFP-T7 and CFP-D7 obtained in Example 3-2 was used to measure a sample as shown below. The activity values of CFP-T7 and CFP-D7 were determined using (reagent 1) adjusted to pH 7.0 with αFVH at a final concentration of 5 mM as a substrate according to the method for measuring amadoriase activity.
(Reagent 4) αFVH (125 mg) was dissolved in ion-exchanged water, the volume of the solution was fixed to 10 ml, and thereby a 30 mM substrate solution was obtained. In addition, the resultant was diluted by 1/714 with a CTAC solution to provide a 42 μM αFVH/0% to 0.2% CTAC solution.
(Reagent 6) (50 μl) was added to a mixed solution of 135 μl of (reagent 5) warmed at 37° C. for 5 minutes in advance and 25 μl of the sample prepared in (11) above to start reaction, and absorbance at a wavelength of 751 nm after reaction at 37° C. for 5 minutes was measured using an automated analyzer, Bio Majesty JCA-BM1650 (from JEOL Ltd.). Absorbance (reagent blank) at a wavelength of 751 nm measured by a similar operation for (reagent 4) prepared using ion-exchanged water in place of the substrate solution was used as a control to calculate the amount of change in absorbance (difference) when each sample was measured, using the following equation. The final concentration of a colorimetric substrate, DA-64, was 0.15 mM; the final concentration of αFVH in the case of the presence of a substrate was 5 μM; and the length (optical path) of the cell used for absorbance measurement was 1 cm. Amount of change in absorbance=ΔAes−Ae0
The amount of change in absorbance when αFVH/0% to 0.2% CTAC were used as samples was calculated.
The purified preparations of amadoriases obtained as described above were used as samples to measure αFVH under the mixing of CTAC using PnFX and NvFX as in Example 5.

[4] = Buffer Solution 100 mM, pH 7.0 (citrate pH 6.0)
[5] = Buffer Solution 50 mM, pH 7.0 (citrate pH 6.0)

Row | Molecule | CFP-T7 Residual Activity (%) (CFP-T7 [1]; [4]) | CFP-T7 Residual Activity (%) (CFP-T7 [1]; [5]) | amadoriase stabilizing effect of the buffer (in words) (CFP-T7 [1]) | measurement of αFVH under the mixing of CTAC (in words) [3] | Amount of Change in Absorbance at Wavelength of 751 nm under Mixing of Each Concentration of CTAC ([3]; Mixing of CTAC 0%) | Amount of Change in Absorbance at Wavelength of 751 nm under Mixing of Each Concentration of CTAC ([3]; Mixing of CTAC 0.01%) | Amount of Change in Absorbance at Wavelength of 751 nm under Mixing of Each Concentration of CTAC ([3]; Mixing of CTAC 0.02%) | Amount of Change in Absorbance at Wavelength of 751 nm under Mixing of Each Concentration of CTAC ([3]; Mixing of CTAC 0.04%) | Amount of Change in Absorbance at Wavelength of 751 nm under Mixing of Each Concentration of CTAC ([3]; Mixing of CTAC 0.06%) | Amount of Change in Absorbance at Wavelength of 751 nm under Mixing of Each Concentration of CTAC ([3]; Mixing of CTAC 0.1%) | Amount of Change in Absorbance at Wavelength of 751 nm under Mixing of Each Concentration of CTAC ([3]; Mixing of CTAC 0.2%) | further results
1 | NC(=O)CNCCS(=O)(=O)O [ACES, N-(2-acetamido)-2-aminoethanesulfonic acid] | 16.4% | – | – | – | – | – | – | – | – | – | – | CFP-T7 Residual Activity (%) (CFP-T7 [1]; Buffer Solution 20 mM, pH 7.0 (citrate pH 6.0)): 15.6%; CFP-T7 Residual Activity (%) (CFP-T7 [1]; Buffer Solution 200 mM, pH 7.0): 22.1%
2 | CC(=O)O [Acetate, acetic acid] | – | – | – | – | – | – | – | – | – | – | – | CFP-T7 Residual Activity (%) (CFP-T7 [2]; Stabilizer 10 mM): 8.9%; CFP-T7 Residual Activity (%) (CFP-T7 [2]; Stabilizer 20 mM): 20.7%; CFP-T7 Residual Activity (%) (CFP-T7 [2]; Stabilizer 50 mM): 52.4%; PnFX Residual Activity (%) (PnFX; Stabilizer 20 mM): 42.6%
3 | O=C(O)CC(O)(CC(=O)O)C(=O)O [Citrate, citric acid] | 105.7% | 108.2% | inactivation due to the surfactant did not occur even at 10 mM | – | – | – | – | – | – | – | – | CFP-T7 Residual Activity (%) (CFP-T7 [2]; Stabilizer 0.2 mM): 12.2%; CFP-T7 Residual Activity (%) (CFP-T7 [2]; Stabilizer 0.5 mM): 30.7%; CFP-T7 Residual Activity (%) (CFP-T7 [2]; Stabilizer 2 mM): 87.6%; PnFX Residual Activity (%) (PnFX; Stabilizer 0.5 mM): 47.3%; CFP-T7 Residual Activity (%) (CFP-T7 [1]; Buffer Solution 10 mM, pH 7.0 (citrate pH 6.0)): 104.1%
4 | O=S(=O)(O)CCN1CCN(CCO)CC1 [HEPES, 4-2-hydroxyethyl-1-piperazine-ethanesulfonic acid, reference compound] | 13.2% | 13.2% | does not have an amadoriase stabilizing effect | – | – | – | – | – | – | – | – | CFP-T7 Residual Activity (%) (CFP-T7 [1]; Buffer Solution 150 mM, pH 7.0): 12.2%; CFP-T7 Residual Activity (%) (CFP-T7 [1]; Buffer Solution 300 mM, pH 7.0): 9.6%; amadoriase stabilizing effect of the buffer (in words) (CFP-T7 [1]; listed as HEPES buffering agent): not observed
5 | B1 | – | – | – | capable of measuring αFVH as a substrate under the mixing of CTAC at a concentration as high as 0.02% or more | 0.173 | 0.115 | 0.084 | 0.026 | 0.008 | 0.003 | 0.001 | PnFX Residual Activity (%) (PnFX; Stabilizer None): 27.9%
6 | B2 | – | – | – | αFVH could not accurately be measured | 0.118 | 0.013 | 0.013 | 0.007 | 0.004 | 0.003 | 0.001 | –
